What was measured:
total acid output = experiment: Total gastric acid output in pylorus-ligated rats; format: in vivo, rat; conditions: oral, 30 min before pyloric ligation; 4 hours output; compared to vehicle-treated control (FIG. 1)
Method: The study was conducted according to the method described by Wong et al (Pharmacol. Soc. 32:49-56, 1989). Each group of test animals used consisted of 6 male rats of the Crj: Wistar strain. The animals were fasted for 24 hours with free access to water. Each dose formulation of Compound 1 (13,14-dihydro-15-keto-16,16-difluoro-PGE1), saline and medium chain fatty acid triglyceride (MCT) was orally administered 30 minutes before pyloric ligation. For positive control, the animals were received pentagastrin, a known gastric acid stimulator, subcutaneously at 2000 μg/kg. Under ether anesthesia, the abdomen was opened through a midline incision, the pylorus ligated with 3-0 silk suture, and the abdomen closed. The animals were kept without diet and water thereafter. Four hours after pyloric ligation, the animals were euthanized by cervical dislocation and the abdomen opened. The gastric contents were collected into sterile centrifuge tubes, and centrifuged at 3000 rpm for 10 minutes to remove solid materials. The supernatant was collected and the volume measured. A 1 mL aliquot of each gastric fluid sample was titrated to pH 7.0 with 0.01 N sodium hydroxide using an automatic […], Co., Ltd., Japan) to determine the acidity (mEq H^+/mL) Total output of gastric acid for 4 hours was calculated

[1] = test system: stress-induced stomach ulcers; experiment: Stress-induced (water immersion, 6 hours) stomach ulcers in rats; format: in vivo, rat; conditions: for Ulcer index (sum of lengths of each individual ulcer): mean ± SE
Method: Each group of test animals used consisted of 9 or 10 male rats of the Crj: Wistar strain. The animals were fasted for 24 hours before the oral administration of the test sample. Ten minutes after the oral administration of various doses of the Compound 1 (13,14-dihydro-15-keto-16,16-difluoro-PGE1) or the vehicle, each animal was put in a narrow cage, and was immersed in water (23° C.) up to the height of the xipoid process for 6 hours. The animals were then euthanized. The stomach was removed and the maximum length of the longest axis of each stomach ulcer was measured. The ulcer index was calculated as the sum of lengths of each individual ulcer.

[2] = test system: gastric ulcer induced by water-immersion stress; experiment: Gastric ulcer induced by water-immersion stress (5 hours) in rats, single and combined treatment; format: in vivo, rat; conditions: for Inhibition of the gastric ulcer: result in words, summary of Table 4
Method: Wistar rats were used after an overnight fast with free access to water. Compound 1 (13,14-dihydro-15-keto-16,16-difluoro-PGE1) or Compound 2(13,14-dihydro-15-keto-16,16-difluoro-18(s) methyl-PGE1) was orally administered to the animals. When the effect of combined treatment with Compound 1 and proton pump inhibitor (lansoprazole or omeprazole) was evaluated, Compound 1 and proton pump inhibitor were orally administered simultaneously. Control group received the same volume of the vehicle. Ten minutes after the administration, the animals were placed in stress cages and were vertically immersed to the xiphoid process in a water bath maintained at 23° C. Five hours later, each animal was taken out from the cage and sacrificed by CO2 asphyxiation. The stomach was removed after ligating the cardiac region of stomach and the upper part of duodenum. The stomach was filled with 4 mL of physiological saline solution, and fixed in 1% formalin solution for 30 minutes. The stomach was opened along the greater curvature. The length (mm) of the individual ulcer was measured and the ulcer index was expressed as the sum of the lengths of all ulcers per stomach.

[3] = test system: indomethacin-induced stomach ulcers; experiment: Indomethacin-induced stomach ulcers in rats; format: in vivo, rat
Method: Each group of test animals used consisted of 10 male rats of the Crj: Wistar strain. The animals were fasted for 24 hours before the oral administration of the Compound 1 (13,14-dihydro-15-keto-16,16-difluoro-PGE1) or the vehicle. Ten minutes after the oral administration of the test sample or the vehicle, all rats received a 20 mg/kg oral dose of indomethacin. The animals were euthanized 6 hours later. The stomach was removed and the length of the longest axis of each stomach ulcer was measured. The ulcer index was calculated as the sum of the lengths of each individual ulcer.

[4] = test system: rabbit platelet aggregation induced with ADP; experiment: Rabbit platelet aggregation induced with ADP; format: cell-based; conditions: for % Inhibition / Maximum aggregation: 10^−7 g/mL, platelet-rich plasma; for Maximum aggregation: mean ± SE, n=3; for Effect on the platelet aggregation: result in words, summary of Table 3
Method: Blood was collected from rabbits of the JW/CSK strain and citrated by mixing with sodium citrate in a ratio of 9 volumes of blood to 1 volume of 3.8% sodium citrate solution. Platelet-rich plasma (PRP) was obtained by centrifugation of the citrated blood at 1000 rpm (168×g) for 10 minutes. After collection of PRP, residual blood was further centrifuged at 3000 rpm (1670×g) for 15 minutes, and the supernatant was used as platelet-poor plasma (PPP). After pre-incubation of PRP (200 μL) with each test solution (25 μL) for 1 minutes at 37° C., 25 μL of platelet aggregation agent (ADP […]) was added. Platelet aggregation was measured with a platelet aggregation meter (HEMATRACER PAT-4A, Niko Bioscience, Inc.). Each test solution was examined with 3 different animal source platelets in duplicate fashion. Inhibition percent was calculated by comparing with the maximal aggregation with the saline-treatment group.

## CCCCC(F)(F)C(=O)CCC1C(O)CC(=O)C1CCCCCCC(=O)O (stereo not shown) [Compound 1, 13,14-dihydro-15-keto-16,16-difluoro-PGE1]
Total acid output
  Effect on total acid output: did not affect
[1]; 3 μg/kg po
  % Inhibition: 9.2%
  Ulcer index (sum of lengths of each individual ulcer): 26.6 ± 3.7
[1]; 10 μg/kg po
  % Inhibition: 20.1%
  Ulcer index (sum of lengths of each individual ulcer): 23.4 ± 4.7
[1]; 30 μg/kg po
  % Inhibition: 54.3%
  Ulcer index (sum of lengths of each individual ulcer): 13.4 ± 2.0
[1]; 100 μg/kg po
  % Inhibition: 85.3%
  Ulcer index (sum of lengths of each individual ulcer): 4.3 ± 1.9
[1]; result in words, summary of Table 2
  Protection against stress-induced ulcer formation: protection significantly
[2]; 10 μg/kg p.o.
  Inhibition: 23%
  Ulcer Index Mean ± S.E.: 12.2 ± 1.9 mm
[2]; 30 μg/kg p.o.
  Inhibition: 36%
  Ulcer Index Mean ± S.E.: 10.1 ± 1.6 mm
[2]; 100 μg/kg p.o.
  Inhibition: 91%
  Ulcer Index Mean ± S.E.: 1.4 ± 0.6 mm
[2]
  Inhibition of the gastric ulcer: dose-dependent manner
[3]; 2 μg/kg po, 10 min before indomethacin 20 mg/kg po, mean ± SE
  Ulcer index (sum of lengths of each individual ulcer): 27.9 ± 5.1
[3]; 2 μg/kg po, versus vehicle control
  % Inhibition: 44%
[3]; result in words, summary of Table 1
  Protection against indomethacin-induced ulcer formation: significant protection
[4]
  % Inhibition: 0%
  Maximum aggregation: 49.5 ± 2.5%
  Effect on the platelet aggregation: no effect

## CC[C@H](C)CC(F)(F)C(=O)CC[C@H]1[C@H](O)CC(=O)[C@@H]1CCCCCCC(=O)O [Compound 2, 13,14-dihydro-15-keto-16,16-difluoro-18(s) methyl-PGE1]
[2]; 10 μg/kg p.o.
  Inhibition: 21%
  Ulcer Index Mean ± S.E.: 12.6 ± 2.2 mm
[2]; 30 μg/kg p.o.
  Inhibition: 36%
  Ulcer Index Mean ± S.E.: 10.2 ± 2.0 mm
[2]; 100 μg/kg p.o.
  Inhibition: 85%
  Ulcer Index Mean ± S.E.: 2.4 ± 0.9 mm
[2]
  Inhibition of the gastric ulcer: dose-dependent manner

## Cc1c(OCC(F)(F)F)ccnc1C[S+]([O-])c1nc2ccccc2[nH]1 (stereo not shown) [Lansoprazole, lansoprazole, reference compound]
[2]; Lansoprazole 1000 μg/kg p.o. alone
  Ulcer Index Mean ± S.E.: 4.6 ± 1.2 mm
[2]; Rattus norvegicus, po, Lansoprazole 1000 μg/kg p.o. alone
  inhibition at 1 mg/kg: 46%

## COc1ccc2[nH]c([S+]([O-])Cc3ncc(C)c(OC)c3C)nc2c1 (stereo not shown) [Omeprazole, omeprazole, reference compound]
[2]; Omeprazole 3000 μg/kg p.o. alone
  Ulcer Index Mean ± S.E.: 5.9 ± 0.9 mm
[2]; Rattus norvegicus, po, Omeprazole 3000 μg/kg p.o. alone
  inhibition at 3 mg/kg: 31%

## CCCCC[C@H](O)/C=C/[C@H]1[C@H](O)CC(=O)[C@@H]1CCCCCCC(=O)O [PGE1, prostaglandin E1, reference compound]
[4]
  % Inhibition: 73%
  Maximum aggregation: 23.3 ± 1.9 %
  Effect on the platelet aggregation: significantly inhibited

Source: US8962688B2, “Method for the treatment of gastrointestinal disorders” (Sucampo AG, priority 2005, dated 2015)
